These results are taken from publication PMC5483892 (Journal of Medicinal Chemistry, 2017).

SMILES strings stand for the structures.

The data set concerns the target ATX (full length human β form with a C-terminal 6-His tag) (Homo sapiens, UniProt Q13822). The format is biochemical. To be noted: for LE (ligand efficiency): LE = −RTpKi/nb heavy atoms; for LE (ligand efficiency) / LLE (lipophilic ligand efficiency): from concentration response pIC50; for LLE (lipophilic ligand efficiency): LLE = pIC50 – cLogP; for affinities within fold of each other: BAL hits 16, 19 and 22 compared with each other.

`OB(O)c1ccc2cc[nH]c2c1` [Compound 1]: the “LE (ligand efficiency)” value is 0.65 and the “LLE (lipophilic ligand efficiency)” value was found to be 4.4.

Take `O=C(O)c1ccc2cc[nH]c2c1` [Compound 2]: the “LE (ligand efficiency)” value is 0.35 and the “LLE (lipophilic ligand efficiency)” value turned out to be 2.8.

`OB(O)c1ccc2nonc2c1` [Compound 3]: the “LE (ligand efficiency)” value is given as 0.57 and the “LLE (lipophilic ligand efficiency)” value amounted to 3.8.

With `Oc1ccc2nonc2c1` [Compound 4], the “LE (ligand efficiency)” value is given as 0.50 and the “LLE (lipophilic ligand efficiency)” value is 3.5.

With `OB(O)c1cccc(O)c1` [Compound 5], the “LE (ligand efficiency)” value is recorded as 0.68 and the “LLE (lipophilic ligand efficiency)” value is given as 3.7.

For the molecule `NCc1cccc(O)c1` [Compound 6], the “LE (ligand efficiency)” value was 0.44 and the “LLE (lipophilic ligand efficiency)” value came to 2.8.

`Nc1cccc(-c2nnc[nH]2)c1` [Compound 8]: the “LE (ligand efficiency)” value came to 0.41 and the “LLE (lipophilic ligand efficiency)” value is on record as 3.4.

Consider `OB(O)c1ccc(O)cc1` [Compound 9], for which the “LE (ligand efficiency)” value is listed as 0.68 and the “LLE (lipophilic ligand efficiency)” value is on record as 3.7.

`Oc1ccc(-n2ccnc2)cc1` [Compound 10]: the “LE (ligand efficiency)” value was determined as 0.37 and the “LLE (lipophilic ligand efficiency)” value worked out at 2.5.

As to `CS(=O)(=O)c1ccc(B(O)O)cc1` [Compound 11], the “LE (ligand efficiency)” value turned out to be 0.55 and the “LLE (lipophilic ligand efficiency)” value was found to be 4.9.

As to `CS(=O)(=O)c1ccc(O)cc1` [Compound 12], the “LE (ligand efficiency)” value came to 0.40 and the “LLE (lipophilic ligand efficiency)” value came out at 2.9.

Take `COc1ccc(B(O)O)cc1` [Compound 13]: the “LE (ligand efficiency)” value was determined as 0.66 and the “LLE (lipophilic ligand efficiency)” value was 3.6.

With `OB(O)c1ccccc1` [Compound 14, phenyl boronic acid], the “LE (ligand efficiency)” value stood at 0.76 and the “LLE (lipophilic ligand efficiency)” value is 3.7.

On to `COc1ccccc1B(O)O` [Compound 15], for which the “LE (ligand efficiency)” value was 0.67 and the “LLE (lipophilic ligand efficiency)” value is 3.8.

Turning to `OB(O)c1ccccc1OCc1cccc(Cl)c1` [Compound 16], the “affinities within fold of each other” value is given as not above 3 fold, the “LE (ligand efficiency)” value is 0.45 and the “LLE (lipophilic ligand efficiency)” value was 3.5. For the same molecule, for the setting “relative to phenyl boronic acid 14”, the increase in potency was 10 fold.

Turning to `COc1cccc(B(O)O)c1` [Compound 17], the “LE (ligand efficiency)” value came to 0.58 and the “LLE (lipophilic ligand efficiency)” value was found to be 2.9.

Regarding `OCc1cccc(B(O)O)c1` [Compound 18], the “LLE (lipophilic ligand efficiency)” value stood at 3.6.

For `COCCc1ccc(OCc2cccc(B(O)O)c2)cc1` [Compound 19], the “affinities within fold of each other” value was not above 3 fold, the “LE (ligand efficiency)” value turned out to be 0.41 and the “LLE (lipophilic ligand efficiency)” value came to 3.3. The “more potent than 18” value (relative to 18) is reported as 25 fold.

For the molecule `N#Cc1ccc(B(O)O)cc1` [Compound 21], the “LE (ligand efficiency)” value turned out to be 0.66.

Regarding `COc1cc(COc2ccc(B(O)O)cc2Cl)cc(OC)c1` [Compound 22], the “affinities within fold of each other” value was not above 3 fold, the “LE (ligand efficiency)” value was found to be 0.40 and the “LLE (lipophilic ligand efficiency)” value came out at 3.4.

For the molecule `N#Cc1cccc(B(O)O)c1` [Compound 26], the “LE (ligand efficiency)” value came out at 0.58.
